Starred links: 1 amine or outer side, 2 acyl side, 3 side chain; linkers in the order of their positions; H or OH if unused. Positions of bridges follow the written chain, without caps; N, C: chain ends. Residues, ends and D or L forms follow the SMILES beside them. *: point of attachment. C18 diacid = O=C(O)CCCCCCCCCCCCCCCCC(=O)*; γGlu = O=C(O)[C@H](CCC(=O)[*:2])N[*:1]; AEEA = NCCOCCOCC(=O)O
Experiments:
[1] = Local tolerance of CNP compounds in rats (s.c. injection, histopathology); type: in vivo, Sprague Dawley rat; conditions: for assessment for human subcutaneous administration: based on rat local tolerance
Description: The purpose of this study was to evaluate the local tissue reaction to subcutaneous injection of CNP compounds in rats.
Procedure: The CNP compounds were formulated according to the principles described in General Methods of Preparation-Method G. Each Sprague Dawley rat (male, 10-11 weeks of age at arrival, Janvier, France) was dosed s.c. with 250 or 350 uL of the same compound (formulation concentration of 1000 nmol/mL) 120 h prior to tissue collection resulting in a total of two injections for each animal (Table 15). Injection site (flank or neck) was alternated across animals within each group and time point.
Animals had access to tap water and food (Altromin 1324) ad libitum. Group size was n=3 for vehicles and positive control, and n=4 for test compounds. Vehicles and compounds were formulated in either 5 mM sodium acetate, 250 mM glycerol, pH 4.0 or 8 mM sodium phosphate, 250 mM glycerol, pH 7.4 as shown in Table 16.
The animals were anesthetized with isoflurane. Via an electric shaving machine, a squared area of fur (2 cm×2 cm) was removed either from the rats' neck or flank area). For dosing, a new injection needle (25G canula, 1 ml syringe) was placed in the middle of the square border closest to the animal's head and the needle was inserted into the skin from the border towards the center of the square. […] On the day of tissue collection, the rats were deeply anaesthetized with isoflurane and euthanized by exsanguination. The injection sites were inspected and scored with regards to pathological lesions. The injection sites were evaluated, and any changes were noted (location, colour, shape and size), and sampled for histology preparation.
The injection sites were removed and fixed in 4% phosphate buffered neutral formaldehyde in sealed plastic containers.
Each injection site was subsequently cut into three sections 0.8 cm, 1.0 cm and 1.2 cm from the square border where the injection needle was placed, and, respectively, these sections represented the injection sites and the adjacent tissue. The tissue was processed, embedded in paraffin and cut in 2-4 μm thin sections, stained with the haematoxylin and eosin (H&E), and evaluated microscopically with a light microscope. Histopathological changes were graded on a 5-level scale (Minimal (Min), Mild (Mil), Moderate (Mod), Marked (Mar) and Severe (Sev)).

[2] = CNP local tolerance study in LYD pigs (s.c. injection, histopathology); type: in vivo, domestic LYD pig
In short: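 Domestic pigs dosed s.c. mid-back, 100 or 200 μl at approx. 4400 μM, in phosphate pH 6.5 or acetate pH 4.0 buffers with glycerol or propylene glycol; saline as negative control. Sites excised 4 or 5 days post injection, H&E sections graded on 5-level scale; necrosis used as marker.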

mouse metatarsal bones = experiment: Mouse metatarsal bone dissection and culture (ex vivo bone growth); type: cell-based, mouse (NMRI); conditions: 100 nM, n=8
Description: The purpose of this study was to evaluate bone growth after administration of CNP compounds in an ex vivo mouse model.
Procedure: One-day old mouse pups (NMRI, Javier Labs France) were euthanised prior to dissection. All applicable international and internal Novo Nordisk guidelines for care and use of animals were followed. The three middle metatarsal bones were dissected out from each hind paw. The dissected bones were placed in 24-well cell culture plates and cultured in 400 μl a-Minimum Essential Media supplemented with 0.2% BSA, 1% Pen/Strep at 37° C. and 5% CO2. The bones from all animals were randomised into a control group and six CNP compound-treated groups (100 nM; n=8). The medium was changed every 2-3 days. All compounds were formulated according to the principles described in General Methods of Preparation—Method G. Compounds 9435 and 9483 were formulated in A) 5 mM sodium acetate, 250 mM glycerol, pH 4.0 while compounds 9384, 9407, 9480 and 9482 were formulated in B) 8 mM sodium phosphate, 250 mM glycerol, pH 7.4.
Digital pictures were captured on day 0, 4, 7, 11, and 14 using a digital camera attached to a Nikon microscope. The length of each metatarsal bone was measured using ImageJ software and increase in bone length was expressed as percentage change from the length measured at the day of dissection (Mean (SD)).
In Table 27, metatarsal bones were isolated from mice and cultured for up to 14 days. Length was measured every 3-4 days throughout the study and expressed as percentage change from day 0 (Mean (SD)). Statistically significant differences are indicated compared to control group (two-way ANOVA).

[3] = 5 days after subcutaneous injections in the rat

SMILES	local subcutaneous necrosis [1, 3]	assessment for human subcutaneous administration [1]	Increase in bone length, mean (%) change from day 0 (mouse metatarsal bones; day 4 in culture) [%]	Increase in bone length, mean (%) change from day 0 (mouse metatarsal bones; day 7 in culture) [%]	Increase in bone length, mean (%) change from day 0 (mouse metatarsal bones; day 11 in culture) [%]	Increase in bone length, mean (%) change from day 0 (mouse metatarsal bones; day 14 in culture) [%]	local subcutaneous necrosis ([2]; pig, in vivo, sc)	also measured
CC[C@H](C)[C@@H]1NC(=O)[C@H](CCCNC(=N)N)NC(=O)[C@H](CC(=O)O)NC(=O)[C@H](CC(C)C)NC(=O)[C@@H]2CCCN2C(=O)[C@H](CC(C)C)NC(=O)CNC(=O)[C@H](Cc2ccccc2)NC(=O)[C@@H](NC(=O)CNC(=O)[C@H](CO)NC(=O)[C@H](CO)NC(=O)[C@@H](NC(=O)CNC(=O)[C@@H](NC(=O)[C@H](Cc2c[nH]cn2)NC(=O)[C@H](CCC(N)=O)NC(=O)[C@H](C)NC(=O)CNC(=O)[C@H](Cc2c[nH]cn2)NC(=O)[C@H](Cc2ccc(O)cc2)NC(=O)[C@H](CCCCN)NC(=O)[C@H](CCCNC(=N)N)NC(=O)[C@H](C)NC(=O)COCCOCCNC(=O)COCCOCCNC(=O)CC[C@H](NC(=O)CCCCCCCCCCCCCCCCC(=O)O)C(=O)O)[C@@H](C)O)C(C)C)CSSC[C@@H](C(=O)O)NC(=O)CNC(=O)[C@H](CC(C)C)NC(=O)CNC(=O)[C@H](CO)NC(=O)[C@H](CC(C)C)NC(=O)[C@H](CO)NC(=O)CNC1=O [compound 1351] ({C18 diacid-γGlu-AEEA-AEEA}-ARKYHGAQHTGVSSGCFGLPLDRIGSLSGLGC-OH; disulfide 16-32)	no or mild	acceptable						
CC[C@H](C)[C@@H]1NC(=O)[C@H](CCCNC(=N)N)NC(=O)[C@H](CC(=O)O)NC(=O)[C@H](CC(C)C)NC(=O)[C@@H]2CCCN2C(=O)[C@H](CC(C)C)NC(=O)CNC(=O)[C@H](Cc2ccccc2)NC(=O)[C@@H](NC(=O)CNC(=O)[C@H](CCC(N)=O)NC(=O)[C@H](CO)NC(=O)[C@H](CC(C)C)NC(=O)CNC(=O)[C@H](CCCCN)NC(=O)[C@H](CCCCN)NC(=O)[C@H](CCC(N)=O)NC(=O)[C@H](C)NC(=O)CNC(=O)[C@H](CCCCN)NC(=O)[C@H](Cc2ccc(O)cc2)NC(=O)COCCOCCNC(=O)COCCOCCNC(=O)COCCOCCNC(=O)COCCOCCNC(=O)CC[C@H](NC(=O)CC[C@H](NC(=O)CC[C@H](NC(=O)CCCCCCCCCCCCCCCCC(=O)O)C(=O)O)C(=O)O)C(=O)O)CSSC[C@@H](C(=O)O)NC(=O)CNC(=O)[C@H](CC(C)C)NC(=O)CNC(=O)[C@H](CO)NC(=O)[C@H](CC(C)C)NC(=O)[C@H](CO)NC(=O)CNC1=O [compound 9480] ({C18 diacid-γGlu-γGlu-γGlu-AEEA-AEEA-AEEA-AEEA}-YKGAQKKGLSQGCFGLPLDRIGSLSGLGC-OH; disulfide 13-29)			33.1	43.9	49.2	52.1		local subcutaneous necrosis ([2]; 5 days after subcutaneous injections in the pig): no; assessment for human subcutaneous administration ([2]; based on pig local tolerance): acceptable
CC[C@H](C)[C@@H]1NC(=O)[C@H](CCCNC(=N)N)NC(=O)[C@H](CCC(=O)O)NC(=O)[C@H](CC(C)C)NC(=O)[C@H](CCCCN)NC(=O)[C@H](CC(C)C)NC(=O)CNC(=O)[C@H](Cc2ccccc2)NC(=O)[C@@H](NC(=O)CNC(=O)[C@H](CCCCN)NC(=O)[C@H](CO)NC(=O)[C@H](CC(C)C)NC(=O)CNC(=O)[C@H](CCCCN)NC(=O)[C@H](CCCCN)NC(=O)[C@H](CCC(N)=O)NC(=O)[C@H](C)NC(=O)CNC(=O)[C@H](CCCCN)NC(=O)[C@H](Cc2ccc(O)cc2)NC(=O)[C@H](CCCCN)NC(=O)[C@H](CCCNC(=N)N)NC(=O)[C@H](C)NC(=O)COCCOCCNC(=O)COCCOCCNC(=O)CC[C@H](NC(=O)CCCCCCCCCCCCCCCCC(=O)O)C(=O)O)CSSC[C@@H](C(=O)O)NC(=O)CNC(=O)[C@H](CC(C)C)NC(=O)CNC(=O)[C@H](CO)NC(=O)[C@H](CC(C)C)NC(=O)[C@H](CO)NC(=O)CNC1=O [compound 0776] ({C18 diacid-γGlu-AEEA-AEEA}-ARKYKGAQKKGLSKGCFGLKLERIGSLSGLGC-OH; disulfide 16-32)							moderate to marked	local subcutaneous necrosis ([1]; rat, in vivo, sc): moderate to marked
CC[C@H](C)[C@@H]1NC(=O)[C@H](CCCNC(=N)N)NC(=O)[C@H](CCC(=O)O)NC(=O)[C@H](CC(C)C)NC(=O)[C@@H]2CCCN2C(=O)[C@H](CC(C)C)NC(=O)CNC(=O)[C@H](Cc2ccccc2)NC(=O)[C@@H](NC(=O)CNC(=O)[C@H](CO)NC(=O)[C@H](CO)NC(=O)[C@H](CC(C)C)NC(=O)CNC(=O)[C@H](CCCCN)NC(=O)[C@H](CCCCN)NC(=O)[C@H](CCC(N)=O)NC(=O)[C@H](C)NC(=O)CNC(=O)[C@H](CCCCN)NC(=O)[C@H](Cc2ccc(O)cc2)NC(=O)[C@H](CCCCN)NC(=O)[C@H](CCCNC(=N)N)NC(=O)[C@H](C)NC(=O)[C@H](CCC(N)=O)NC(=O)[C@@H]2CCCN2C(=O)[C@H](Cc2c[nH]cn2)NC(=O)[C@H](CCC(=O)O)NC(=O)[C@H](CCC(N)=O)NC(=O)CC[C@H](NC(=O)CC[C@H](NC(=O)CC[C@H](NC(=O)CC[C@H](NC(=O)CCCCCCCCCCCCCCCCC(=O)O)C(=O)O)C(=O)O)C(=O)O)C(=O)O)CSSC[C@@H](C(=O)O)NC(=O)CNC(=O)[C@H](CC(C)C)NC(=O)CNC(=O)[C@H](CO)NC(=O)[C@H](CC(C)C)NC(=O)[C@H](CO)NC(=O)CNC1=O [compound 9483] ({C18 diacid-γGlu-γGlu-γGlu-γGlu}-QEHPQARKYKGAQKKGLSSGCFGLPLERIGSLSGLGC-OH; disulfide 21-37)			30.2	39.5	49.7	51.5	no to moderate	
CC[C@H](C)[C@@H]1NC(=O)[C@H](CCCNC(=N)N)NC(=O)[C@H](CC(=O)O)NC(=O)[C@H](CC(C)C)NC(=O)[C@@H]2CCCN2C(=O)[C@H](CC(C)C)NC(=O)CNC(=O)[C@H](Cc2ccccc2)NC(=O)[C@@H](NC(=O)CNC(=O)[C@H](CCCCN)NC(=O)[C@H](CO)NC(=O)[C@@H](NC(=O)CNC(=O)[C@@H](NC(=O)[C@H](Cc2c[nH]cn2)NC(=O)[C@H](CCC(N)=O)NC(=O)[C@H](C)NC(=O)CNC(=O)[C@H](Cc2c[nH]cn2)NC(=O)[C@H](Cc2ccc(O)cc2)NC(=O)[C@H](CCCCN)NC(=O)[C@H](CCCNC(=N)N)NC(=O)[C@H](C)NC(=O)COCCOCCNC(=O)COCCOCCNC(=O)CC[C@H](NC(=O)CC[C@H](NC(=O)CC[C@H](NC(=O)CCCCCCCCCCCCCCCCC(=O)O)C(=O)O)C(=O)O)C(=O)O)[C@@H](C)O)C(C)C)CSSC[C@@H](C(=O)O)NC(=O)CNC(=O)[C@H](CC(C)C)NC(=O)CNC(=O)[C@H](CO)NC(=O)[C@H](CC(C)C)NC(=O)[C@H](CO)NC(=O)CNC1=O [compound 1420] ({C18 diacid-γGlu-γGlu-γGlu-AEEA-AEEA}-ARKYHGAQHTGVSKGCFGLPLDRIGSLSGLGC-OH; disulfide 16-32)	no or mild	acceptable						

— patent US20240209028A1, “CNP COMPOUNDS” (priority 2022, published 2024)
